Laboratory results: patent publication US9732065B2, “Cyclic aminomethyl pyrimidine derivative” (Sumitomo Dainippon Pharma Co., Ltd., priority 2013, dated 2017)

Experiments:
[1] = biological target: T1, human adrenergic α2A receptor (Homo sapiens, UniProt P08913); assay: Agonistic/antagonistic activity in G protein dependent pathway (aequorin intracellular calcium luminescence), α2A; assay type: cell-based; details: for Maximal activity on each receptor (%): α2A: 10 μM adrenaline = 100%; for inhibition at 0.1 µM / inhibition at 1 µM: against 10 μM endogenous ligand, read-out: Inhibitory activity on each receptor (%): α2A
T1 construct: expressed in transfected cells; host or cells: CHO-K1 or HEK293 cells
T1 sequence (P08913 1-465): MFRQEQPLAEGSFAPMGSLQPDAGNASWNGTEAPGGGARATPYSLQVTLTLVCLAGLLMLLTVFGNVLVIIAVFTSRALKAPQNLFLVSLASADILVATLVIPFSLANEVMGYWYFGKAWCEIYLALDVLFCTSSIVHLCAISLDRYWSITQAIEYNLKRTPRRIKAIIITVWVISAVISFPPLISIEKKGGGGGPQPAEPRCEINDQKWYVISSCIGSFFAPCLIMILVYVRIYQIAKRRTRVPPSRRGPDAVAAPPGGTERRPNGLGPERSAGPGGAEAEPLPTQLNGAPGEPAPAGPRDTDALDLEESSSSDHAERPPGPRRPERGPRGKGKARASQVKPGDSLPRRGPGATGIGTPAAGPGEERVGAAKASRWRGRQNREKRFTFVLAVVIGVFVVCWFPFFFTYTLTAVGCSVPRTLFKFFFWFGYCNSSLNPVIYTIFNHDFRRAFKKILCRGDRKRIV
Protocol: Plasmids encoding each receptor, aequorin and Gα16 were prepared, and the plasmids were transfected into CHO cells (Chinese Hamster Ovary cells) or HEK293 cells (Human Embryonic Kidney 293 cells) to prepare expressing cell lines.
The agonistic or antagonistic activity of the present compound in the G protein dependent pathway was evaluated on the basis of intracellular calcium levels as follows. CHO-K1 or HEK293 cell lines transfected with D2, D4, α1A, or α2A receptor genes were seeded in a 384-well plate, and incubated in a CO2 incubator at 37° C. for 24 hours, and then a solution of the present compound in DMSO was added into cells preloaded with coelenterazine to measure the change in luminescent signals with a FDSS (Hamamatsu Photonics K.K.). […] The agonistic activity of the present compound was calculated according to the measured luminescent signals, as the maximal activity (Emax) of the present compound. On the other hand, the antagonistic activity of the present compound was calculated according to the luminescent signals in wells with 10 μM of an endogenous ligand alone defined as 100%, as the inhibitory activity of the present compound to an endogenous ligand. EC50 value was calculated as the concentration of the present compound required to achieve a 50% response, and IC50 was calculated as the concentration of the present compound required to achieve a 50% inhibition of the Emax of an endogenous ligand.

[2] = tested on: SHR rat; assay: Inattention in SHR rat, Y-shaped maze test; assay type: in vivo; details: oral, 1 mg/kg
Protocol: It is known that a SHR rat has a lower spontaneous alternation behavior ratio than a WKY rat which is a background animal through the Y-shaped maze test. Thus, the SHR rat was pretreated with the present compound to evaluate the pharmacological effect of the present compound on attention function. Specifically, a 4-week-old SHR rat received the oral administration of the present compound, and a spontaneous alternation behavior ratio in the rat was measured for 8 minutes from 30 minutes after the administration. The improved spontaneous alternation behavior ratio (%) was calculated as a numerical value on the basis of the spontaneous alternation behavior ratio in the vehicle administration group. In this study, a Y-shaped maze device (black acrylic: 450 mm×100 mm×350 mm, Horikawa Manufacturing Co., Ltd.) was used.

[3] = tested on: rat after prenatal exposure to valproic acid; assay: Social impairments in rat after prenatal exposure to valproic acid, three-chamber test; assay type: in vivo; details: oral, 1 mg/kg
Excerpt: A rat exposed to valproic acid on the 12.5 days of fetal life has been widely used as an autistic rat model with high validity. It is known that the rat has a social cognitive disorder through the three-chamber test which is a test for evaluating sociability. Thus, the rat was pretreated with the present compound to evaluate the improved effect of the present compound on social cognition. In this study, a sociability cage (600 mm×400 mm×220 mm, Muromachi Kikai Co., Ltd.) was used. Specifically, a 3-week-old rat after prenatal exposure to valproic acid received the oral administration of the present compound, and the time that the rat stayed in close to another rat side or a novel object was measured for 10 minutes from 30 minutes after the administration. The ratio of the time for another rat side to the time for a novel object that is defined as 100% was calculated to evaluate the improvement ratio (%) of the present compound on the basis of the result of the vehicle-treated group. The improvement ratio after the oral administration of the compound of Example 5 (1 mg/kg) was 27.6%.

Row | Maximal activity on each receptor (%): α2A ([1]; 0.1 μM) | inhibition at 0.1 µM ([1]; 0.1 μM) | Maximal activity on each receptor (%): α2A ([1]; 1 μM) | inhibition at 1 µM ([1]; 1 μM) | SMILES | spontaneous alternation behavior ratio [2] | time that the rat stayed in close to another rat side [3] | improvement ratio (%) ([3]; time for another rat side vs novel object, relative to vehicle)
1 | −0.1% | 0.91% | −0.12% | 7.8% | Cc1ncc(CN2CCC(c3cncc(F)c3)CC2)cn1 [Example 33, 5-[4-(5-Fluoropyridin-3-yl)piperidin-1-ylmethyl]-2-methylpyrimidine] |  |  | 
2 | −0.17% | 7.9% | −0.27% | 0.24% | Nc1ncc(CN2CCC(c3cccnc3)CC2)cn1 [Example 37] |  |  | 
3 | −0.17% | -7% | −0.04% | -1.7% | Cc1ncc(CN2CCC(c3ccccn3)CC2)c(N)n1 [Example 5, 2-Methyl-5-[4-(pyridin-2-yl)piperidin-1-ylmethyl]pyrimidin-4-amine] | significantly improved | significantly increased | 27.6%
